Reference: PMC4077772, “Evolutionary Origin of GnIH and NPFF in Chordates: Insights from Novel Amphioxus RFamide Peptides” (PLoS ONE, 2014)
Where no end group is shown, it is not given here.

What was measured:
amphioxus PQRFa-R1 = assay: FSK-induced CRE-luciferase reporter assay, COS-7 cells transfected with amphioxus PQRFa-R1; format: cell-based, Branchiostoma japonicum; settings: 6 h, COS-7 cells with PQRFa-R1, tested 10^−10−10^−6 M, dual-luciferase, fold activation over basal, mean ± SEM (n=4−6), Figure 6
Experimental: COS-7 cells were maintained in Dulbecco's modified Eagle's medium (DMEM; GIBCO/Invitrogen, Carlsbad, CA) supplemented with high glucose (4.5 g/L) containing 10% fetal bovine serum (GIBCO/Invitrogen) and 1% penicillin/streptomycin antibiotics (GIBCO/Invitrogen) in a humidified 5% CO2 atmosphere at 37°C. For luciferase assay, COS-7 cells were plated in 24-well plates and grown to 70–80% confluence for 24 h before transfection. Cells were then co-transfected with 200 ng of p3XFLAG-CMV-14 expression vector (Sigma-Aldrich Co., St Louis, MO) containing the amphioxus PQRFa-R1, PQRFa-R2, or empty vector, 200 ng of the pGL4.29[luc2P/CRE/Hygro] […] Cell extracts were prepared, and luciferase activity was measured using the dual-luciferase reporter assay system (Promega). […] Statistical significance was assessed by Prism statistical software (GraphPad Software Inc., La Jolla, CA). […]
Figure 5 Effect of amphioxus PQRFa peptides on forskolin (FSK)-induced or basal CRE-luciferase activity. […] The effect of amphioxus PQRFa peptides on basal CRE-luciferase activity was also tested in COS-7 cells transfected with amphioxus PQRFa-R1 or R2.The relative luciferase activity was measured from cell lysates and expressed as fold activation over the respective basal levels. […]

CRE-luciferase activity = settings: ref [41]; cited from earlier work
From the text: (§1) We conducted in vitro assays to analyze whether the amphioxus PQRFa peptides have a biological activity.

cAMP levels = settings: ref [42]; cited from earlier work
From the text: as §1

pituitary = settings: lamprey GnIH; ref [24]; cited from earlier work
From the text: as §1

GRDQGWRPQRF-NH2 [PQRFa-3]
inhibition of FSK-induced CRE-luciferase activity (dose-dependent study) (amphioxus PQRFa-R1; 10^−6 M peptide): inhibited FSK-induced CRE-luciferase activity
inhibition of FSK-induced CRE-luciferase activity (dose-dependent study) (amphioxus PQRFa-R1; 10^−7 M peptide): inhibited FSK-induced CRE-luciferase activity

FLFQPQRFamide [NPFF, pain modulatory neuropeptide with a C-terminal Pro-Gln-Arg-Phe-NH2 motif]
effect on FSK-stimulated CRE-luciferase activity (CRE-luciferase activity): inhibited FSK-stimulated CRE-luciferase activity
effect on cAMP levels (cAMP levels): inhibited cAMP levels

SEPFWHRTRPQRF-NH2 [Lamprey GnIH (LPXRFa peptide-2), lamprey GnIH ortholog]
effect on expression of GTHβ mRNA in the pituitary (pituitary): increased the expression of GTHβ mRNA
